Reference: publication PMC4033643 (Chemical research in toxicology, 2014)

What was measured:
[1] = biological target: T1, thioredoxin reductase 1 (TrxR1) (Rattus norvegicus, UniProt O89049); assay: DTNB reduction assay with purified NADPH-reduced enzyme; assay type: biochemical
T1 sequence (O89049 1-499): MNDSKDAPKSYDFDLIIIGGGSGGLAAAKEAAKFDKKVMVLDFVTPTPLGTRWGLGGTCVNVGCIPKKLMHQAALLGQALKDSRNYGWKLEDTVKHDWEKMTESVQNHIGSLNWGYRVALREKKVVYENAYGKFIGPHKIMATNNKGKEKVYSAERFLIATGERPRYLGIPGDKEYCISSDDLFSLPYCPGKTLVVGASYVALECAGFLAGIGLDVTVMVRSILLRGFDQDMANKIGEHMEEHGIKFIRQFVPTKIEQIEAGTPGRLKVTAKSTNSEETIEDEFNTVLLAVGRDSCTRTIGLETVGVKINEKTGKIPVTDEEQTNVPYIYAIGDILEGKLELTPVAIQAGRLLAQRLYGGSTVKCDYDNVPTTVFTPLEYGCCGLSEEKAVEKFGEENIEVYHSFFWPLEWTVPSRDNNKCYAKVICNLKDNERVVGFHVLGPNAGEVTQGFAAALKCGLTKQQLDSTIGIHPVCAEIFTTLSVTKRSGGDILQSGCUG

[2] = biological target: T2, human TrxR1 Sec498Cys mutant enzyme (Homo sapiens, UniProt Q16881, U648C); assay: DTNB reduction assay with recombinant mutant enzyme; assay type: biochemical
T2 sequence (Q16881 151-649 U648C): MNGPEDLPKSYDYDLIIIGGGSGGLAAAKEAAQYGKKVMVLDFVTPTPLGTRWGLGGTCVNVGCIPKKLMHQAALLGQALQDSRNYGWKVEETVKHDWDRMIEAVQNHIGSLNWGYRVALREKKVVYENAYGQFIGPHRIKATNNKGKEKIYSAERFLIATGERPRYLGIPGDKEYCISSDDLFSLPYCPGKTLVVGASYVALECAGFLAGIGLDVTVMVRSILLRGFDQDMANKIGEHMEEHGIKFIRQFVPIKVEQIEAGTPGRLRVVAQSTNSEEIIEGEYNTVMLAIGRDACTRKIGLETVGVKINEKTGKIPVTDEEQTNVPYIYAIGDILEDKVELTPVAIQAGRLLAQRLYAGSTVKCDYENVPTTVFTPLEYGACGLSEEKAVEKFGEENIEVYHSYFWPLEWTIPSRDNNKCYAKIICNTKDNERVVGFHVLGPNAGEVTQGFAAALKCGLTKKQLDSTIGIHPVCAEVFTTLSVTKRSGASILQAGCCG

Compound: CC(=O)N=C1C=CC(=O)C=C1 [NAPQI, N-acetyl-p-benzoquinone imine]
- IC50 [1]: 0.023 µM
- IC50 [2]: 17 µM
